The structures appear in SMILES notation.

The target in this experiment is T1, hTLR9 (Homo sapiens, UniProt Q9NR96).
T1 sequence (Q9NR96 26-1032): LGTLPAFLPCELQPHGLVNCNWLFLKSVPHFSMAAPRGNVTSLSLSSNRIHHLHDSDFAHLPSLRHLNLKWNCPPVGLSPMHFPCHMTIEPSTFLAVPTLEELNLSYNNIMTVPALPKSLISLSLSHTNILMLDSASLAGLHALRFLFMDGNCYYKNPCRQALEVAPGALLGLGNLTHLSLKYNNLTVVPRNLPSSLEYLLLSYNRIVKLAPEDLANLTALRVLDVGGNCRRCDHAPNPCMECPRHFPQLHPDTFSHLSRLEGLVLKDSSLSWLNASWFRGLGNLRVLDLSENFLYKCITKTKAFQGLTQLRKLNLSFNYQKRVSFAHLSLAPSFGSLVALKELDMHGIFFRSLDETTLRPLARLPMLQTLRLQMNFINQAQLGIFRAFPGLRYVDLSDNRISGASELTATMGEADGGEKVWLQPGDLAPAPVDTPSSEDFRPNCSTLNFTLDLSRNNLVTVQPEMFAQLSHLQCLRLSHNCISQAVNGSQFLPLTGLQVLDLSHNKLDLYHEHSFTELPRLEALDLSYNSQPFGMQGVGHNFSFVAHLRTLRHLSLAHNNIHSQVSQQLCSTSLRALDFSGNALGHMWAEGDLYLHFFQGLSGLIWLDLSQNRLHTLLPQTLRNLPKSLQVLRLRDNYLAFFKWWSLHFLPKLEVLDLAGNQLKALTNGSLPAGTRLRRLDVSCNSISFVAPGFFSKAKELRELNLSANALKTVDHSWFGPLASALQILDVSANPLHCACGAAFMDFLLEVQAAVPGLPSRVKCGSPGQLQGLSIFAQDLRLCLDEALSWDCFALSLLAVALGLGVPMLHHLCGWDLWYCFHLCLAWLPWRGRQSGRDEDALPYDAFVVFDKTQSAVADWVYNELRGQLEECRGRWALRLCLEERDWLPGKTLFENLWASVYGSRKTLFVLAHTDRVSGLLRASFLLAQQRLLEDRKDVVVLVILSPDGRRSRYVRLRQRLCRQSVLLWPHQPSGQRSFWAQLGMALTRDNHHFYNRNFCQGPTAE
Kind of experiment: HEK293-Blue-hTLR-9 cells assay (SEAP reporter, ODN2006 stimulation). In kind it is cell-based. Also on record: host or cells: HEK293 (HEK-Blue hTLR9). As to conditions: HEK293-Blue-hTLR9 cells, ODN2006, 20 hrs; read-out: HEK/hTLR9 IC50. A digest of the protocol: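 Antagonism read as lowered SEAP reporter absorbance (620–655 nm, QUANTI-Blue, 2 h, 37 °C) in supernatants. Before that, ODN2006-stimulated HEK293-Blue cells stably expressing human TLR9 were exposed to compound dilutions at 1% final DMSO for 20 h at 37 °C.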
On to `Cc1cc(N2CCN(C[C@H]3CN(c4ccc(C#N)c5ncccc45)C[C@@H](C)O3)CC2)nc(N2C[C@H](N)C[C@H](F)C2)n1` (relative stereo) [Example 74, 5-[(2R,6S)-2-methyl-6-[[4-[6-methyl-2-[cis-3-amino-5-fluoro-1-piperidyl]pyrimidin-4-yl]piperazin-1-yl]methyl]morpholin-4-yl]quinoline-8-carbonitrile], for which the IC50 was 72 nM.
In the case of `Cc1cc(N2CCN(C[C@H]3CN(c4ccc(C#N)c5ncccc45)C[C@@H](C)O3)CC2)nc(N2C[C@H](N)C[C@@H](F)C2)n1` (relative stereo) [Example 75, 5-[(2R,6S)-2-methyl-6-[[4-[6-methyl-2-[trans-3-amino-5-fluoro-1-piperidyl]pyrimidin-4-yl]piperazin-1-yl]methyl]morpholin-4-yl]quinoline-8-carbonitrile], the IC50 is 57 nM.
As for `CO[C@H]1CN(c2nc(C)cc(N3CCN(C[C@H]4CN(c5ccc(C#N)c6ncccc56)C[C@@H](C)O4)CC3)n2)C[C@@H]1N` (single isomer, unassigned) [Example 69A], the IC50 worked out at 54 nM.
The same measure for `CO[C@@H]1CN(c2nc(C)cc(N3CCN(C[C@H]4CN(c5ccc(C#N)c6ncccc56)C[C@@H](C)O4)CC3)n2)C[C@H]1N` (single isomer, unassigned) [Example 69B]: 70 nM; for `Cc1cc(N2CCN(C[C@H]3CN(c4ccc(C#N)c5ncccc45)C[C@@H](C)O3)CC2)nc(N2CC[C@@H](F)C(N)C2)n1` (single isomer, unassigned) [Example 84]: 104 nM; for `COC1CN(c2nc(C)cc(N3CCN(C[C@H]4CN(c5ccc(C#N)c6ncccc56)C[C@@H](C)O4)CC3)n2)CC1N` (single isomer, unassigned) [Example 88]: 71 nM.
With `COC1CNCC1Nc1nc(C)cc(N2CCN(C[C@H]3CN(c4ccc(C#N)c5ncccc45)C[C@@H](C)O3)CC2)n1` (stereo in doubt) [Example 70, 5-[(2S,6R)-2-[[4-[2-[[(3R,4R)-4-methoxypyrrolidin-3-yl]amino]-6-methyl-pyrimidin-4-yl]piperazin-1-yl]methyl]-6-methyl-morpholin-4-yl]quinoline-8-carbonitrile], the IC50 turned out to be 80 nM.
`Cc1cc(N2CCN(C[C@H]3CN(c4ccc(C#N)c5ncccc45)C[C@@H](C)O3)CC2)nc(NC2CNCC2F)n1` (stereo in doubt) [Example 73, 5-[(2S,6R)-2-[[4-[2-[[(3S,4R)-4-fluoropyrrolidin-3-yl]amino]-6-methyl-pyrimidin-4-yl]piperazin-1-yl]methyl]-6-methyl-morpholin-4-yl]quinoline-8-carbonitrile]: the IC50 stood at 69 nM.
For `Cc1cc(N2CCN(C[C@H]3CN(c4ccc(C#N)c5ncccc45)C[C@@H](C)O3)CC2)nc(N2CC[C@@H](N)C(F)C2)n1` (stereo in doubt) [Example 82, 5-[(2S,6R)-2-[[4-[2-[(3R,4R)-4-amino-3-fluoro-1-piperidyl]-6-methyl-pyrimidin-4-yl]piperazin-1-yl]methyl]-6-methyl-morpholin-4-yl]quinoline-8-carbonitrile] the value was 56 nM.
For `CO[C@H]1CN(c2nc(C)cc(N3CCN(C[C@H]4CN(c5ccc(C#N)c6ncccc56)C[C@@H](C)O4)CC3)n2)CCC1N` (stereo in doubt) [Example 90, 5-[(2S,6R)-2-[[4-[2-[(3S,4S)-4-amino-3-methoxy-1-piperidyl]-6-methyl-pyrimidin-4-yl]piperazin-1-yl]methyl]-6-methyl-morpholin-4-yl]quinoline-8-carbonitrile] the value was 54 nM.
For `Cc1cc(N2CCN(C[C@H]3CN(c4ccc(C#N)c5ncccc45)C[C@@H](C)O3)CC2)nc(N[C@@H]2CNC[C@@H]2F)n1` [Example 71, 5-[(2S,6R)-2-[[4-[2-[[(3R,4S)-4-fluoropyrrolidin-3-yl]amino]-6-methyl-pyrimidin-4-yl]piperazin-1-yl]methyl]-6-methyl-morpholin-4-yl]quinoline-8-carbonitrile] the value was 66 nM; for `CO[C@@H]1CN(c2nc(C)cc(N3CCN(C[C@H]4CN(c5ccc(C#N)c6ncccc56)C[C@@H](C)O4)CC3)n2)C[C@@H]1N` [Example 72, 5-[(2S,6R)-2-[[4-[2-[(3S,4R)-3-amino-4-methoxy-pyrrolidin-1-yl]-6-methyl-pyrimidin-4-yl]piperazin-1-yl]methyl]-6-methyl-morpholin-4-yl]quinoline-8-carbonitrile], 46 nM.
With `Cc1cc(N2CCN(C[C@H]3CN(c4ccc(C#N)c5ncccc45)C[C@@H](C)O3)CC2)nc(N[C@@H]2CNC[C@H]2F)n1` [Example 76, 5-[(2S,6R)-2-[[4-[2-[[(3R,4R)-4-fluoropyrrolidin-3-yl]amino]-6-methyl-pyrimidin-4-yl]piperazin-1-yl]methyl]-6-methyl-morpholin-4-yl]quinoline-8-carbonitrile], the IC50 was found to be 50 nM.
The same measure for `Cc1cc(N2CCN(C[C@H]3CN(c4ccc(C#N)c5ncccc45)C[C@@H](C)O3)CC2)nc(N2C[C@@H](N)C[C@@H](F)C2)n1` [Example 77, 5-[(2S,6R)-2-[[4-[2-[(3S,5R)-3-amino-5-fluoro-1-piperidyl]-6-methyl-pyrimidin-4-yl]piperazin-1-yl]methyl]-6-methyl-morpholin-4-yl]quinoline-8-carbonitrile]: 56 nM; for `Cc1cc(N2CCN(C[C@H]3CN(c4ccc(C#N)c5ncccc45)C[C@@H](C)O3)CC2)nc(N2CC[C@@H](N)[C@@H](F)C2)n1` [Example 78, 5-[(2S,6R)-2-[[4-[2-[(3S,4R)-4-amino-3-fluoro-1-piperidyl]-6-methyl-pyrimidin-4-yl]piperazin-1-yl]methyl]-6-methyl-morpholin-4-yl]quinoline-8-carbonitrile]: 65 nM; for `Cc1cc(N2CCN(C[C@H]3CN(c4ccc(C#N)c5ncccc45)C[C@@H](C)O3)CC2)nc(N2C[C@@H](N)[C@H](F)C2)n1` [Example 79, 5-[(2S,6R)-2-[[4-[2-[(3R,4R)-3-amino-4-fluoro-pyrrolidin-1-yl]-6-methyl-pyrimidin-4-yl]piperazin-1-yl]methyl]-6-methyl-morpholin-4-yl]quinoline-8-carbonitrile]: 63 nM.
For `Cc1cc(N2CCN(C[C@H]3CN(c4ccc(C#N)c5ncccc45)C[C@@H](C)O3)CC2)nc(N2CC(N)CC(F)(F)C2)n1` (stereo partly drawn) [Example 80, 5-[(2S,6R)-2-[[4-[2-(5-amino-3,3-difluoro-1-piperidyl)-6-methyl-pyrimidin-4-yl]piperazin-1-yl]methyl]-6-methyl-morpholin-4-yl]quinoline-8-carbonitrile] the value was 120 nM.
For `Cc1cc(N2CCN(C[C@H]3CN(c4ccc(C#N)c5ncccc45)C[C@@H](C)O3)CC2)nc(N2CCNC(C(C)(C)O)C2)n1` (stereo partly drawn) [Example 81, 5-[(2S,6R)-2-[[4-[2-[3-(1-hydroxy-1-methyl-ethyl)piperazin-1-yl]-6-methyl-pyrimidin-4-yl]piperazin-1-yl]methyl]-6-methyl-morpholin-4-yl]quinoline-8-carbonitrile] the value was 46 nM; for `Cc1cc(N2CCN(C[C@H]3CN(c4ccc(C#N)c5ncccc45)C[C@@H](C)O3)CC2)nc(N2CC[C@@H](F)[C@@H](N)C2)n1` [Example 83, 5-[(2R,6S)-2-methyl-6-[[4-[6-methyl-2-[(3S,4R)-3-amino-4-fluoro-1-piperidyl]-pyrimidin-4-yl]piperazin-1-yl]methyl]morpholin-4-yl]quinoline-8-carbonitrile], 96 nM.
On to `Cc1cc(N2CCN(C[C@H]3CN(c4ccc(C#N)c5ncccc45)C[C@@H](C)O3)CC2)nc(N2CCC(N)C(F)(F)C2)n1` (stereo partly drawn) [Example 86, 5-[(2S,6R)-2-[[4-[2-(4-amino-3,3-difluoro-1-piperidyl)-6-methyl-pyrimidin-4-yl]piperazin-1-yl]methyl]-6-methyl-morpholin-4-yl]quinoline-8-carbonitrile], for which the IC50 stood at 189 nM.
The same measure for `Cc1cc(N2CCN(C[C@H]3CN(c4ccc(C#N)c5ncccc45)C[C@@H](C)O3)CC2)nc(N2CC(N)C2)n1` [Example 87, 5-[(2S,6R)-2-[[4-[2-(3-aminoazetidin-1-yl)-6-methyl-pyrimidin-4-yl]piperazin-1-yl]methyl]-6-methyl-morpholin-4-yl]quinoline-8-carbonitrile]: 75 nM.

The values above are taken from patent publication US20210395239A1 (Hoffmann-La Roche Inc., priority 2018, published 2021).
